Series [1] deals with patients. Also noted: method as in PMID 33293081. The conditions noted are these: clinical study; cited from earlier work.
In series [2] the test system is BALB/c nude mice. Kind of series: Comparison of treated (cured) therapy mice with healthy mice at study end. The series is classed as in vivo. As to the method:
After administration of the radioligands, the mice were monitored over 8 weeks using the same measures as previously published by Umbricht et al.. The relative body mass was defined as [BMx/BM0], where BMx is the body mass in grams at a given Day x and BM0 is the body mass in grams at Day 0. The tumor dimension was determined by measuring the longest tumor axis (L) and its perpendicular axis (W) with a digital caliper. The tumor volume (V) was calculated according to the equation [V = 0.5 × (LW^2)]. The relative tumor volume was defined as [TVx/TV0], where TVx is the tumor volume in mm^3 at a given Day x, and TV0 is the tumor volume in mm^3 at Day 0. Endpoint criteria that required euthanasia were defined as (i) body mass loss of >15%, (ii) a tumor volume of >800 mm^3, (iii) a combination of body mass loss of >10% and a tumor volume of >700 mm^3 or, (iv) signs of unease and pain or a combination thereof using a scoring system as previously reported. The median survival of mice of each group was assessed with Kaplan–Meier curves. Potential early side effects for mice that survived until study end were determined based on blood chemistry and organ-to-brain mass ratios on Day 56 by comparison to values obtained from an additional group of therapy-naïve mice (n = 4) without tumors but of the same age (Supplementary Material: Section S9). […]
10. Comparison of [225Ac]Ac-SibuDAB-Treated Mice with Healthy Mice at Study End Purpose: To investigate whether a successful tumor treatment with [225Ac]Ac- […]
compared to treatment-naïve, non-tumor-bearing mice on Day 56.
Methods: In order to assess the tolerability of the treatment, the body mass, the organ masses and organ-to-brain mass ratios as well as blood chemistry of the cured mice were compared to those of healthy, non-tumor-bearing BALB/c nude mice on Day 56.
Results: Survival: Targeted alpha therapy using [225Ac]Ac-SibuDAB was very effec-tive and all mice treated with 5 kBq, 10 kBq or 30 kBq of this radioligand survived until […]
Body Mass: The body mass of mice that were effectively treated with [225Ac]Ac-SibuDAB was in the same range as for healthy, non-tumor-bearing control mice at the end of the study on Day 56 (p>0.05) ( Table S11).

On to `O=C([O-])CN1CCN(CC(=O)[O-])CCN(CC(=O)NCC2CCC(C(=O)NC(Cc3ccc4ccccc4c3)C(=O)NCCCCC(NC(=O)NC(CCC(=O)O)C(=O)O)C(=O)O)CC2)CCN(CC(=O)[O-])CC1.[225Ac+3]` (stereo not shown) [[^225Ac]Ac-PSMA-617], for which the “patients with hematotoxicity up to Grade 3/4” value in series [1] is recorded as “about 30%”.
As for `CC(C)Cc1ccc(C(C)C(=O)NC(CCN)C(=O)NCCCCC(NC(=O)CN2CCN(CC(=O)[O-])CCN(CC(=O)[O-])CCN(CC(=O)[O-])CC2)C(=O)NCC2CCC(C(=O)NC(Cc3ccc4ccccc4c3)C(=O)NCCCCC(NC(=O)NC(CCC(=O)O)C(=O)O)C(=O)O)CC2)cc1.[225Ac+3]` (stereo not shown) [[^225Ac]Ac-SibuDAB], in series [2] (Day 56, 5 kBq), the ALB is 25 ± 2 g/L, the ALP came out at 93 ± 10 U/L, the BUN turned out to be 6.4 ± 1.2 mmol/L and the Brain mass is listed as 403 ± 14 mg. In series [2] (Day 56, 5 kBq), the Kidney mass amounted to 252 ± 15 mg, the Kidney-to-brain mass ratio is recorded as 0.63 ± 0.03, the Liver mass is given as 1079 ± 47 mg and the Liver-to-brain mass ratio was determined as 2.7 ± 0.1. Further, in series [2] (Day 56, 5 kBq), the “RBM (relative body mass)” value is reported as 1.13 ± 0.05, the Spleen mass stood at 113 ± 17 mg, the Spleen-to-brain mass ratio is given as 0.28 ± 0.04 and the TBIL came out at 4.0 ± 0.9 µmol/L. Also, in series [2] (Day 56, 10 kBq), the ALB is recorded as 26 ± 2 g/L, the ALP was 85 ± 7 U/L, the BUN came out at 7.3 ± 0.8 mmol/L and the Brain mass amounted to 384 ± 18 mg. In addition, in series [2] (Day 56, 10 kBq), the Kidney mass came to 260 ± 11 mg, the Kidney-to-brain mass ratio is 0.68 ± 0.04, the Liver mass was 1139 ± 83 mg and the Liver-to-brain mass ratio is 3.0 ± 0.2. Moreover, in series [2] (Day 56, 10 kBq), the “RBM (relative body mass)” value worked out at 1.12 ± 0.03, the Spleen mass is reported as 116 ± 32 mg, the Spleen-to-brain mass ratio is recorded as 0.31 ± 0.09 and the TBIL is 3.2 ± 0.4 µmol/L. In series [2] (Day 56, 30 kBq), the ALB is on record as 22 ± 1 g/L, the ALP is listed as 83 ± 2 U/L, the “Adverse events in cured mice compared to healthy mice” value was “No obvious adverse events” and the BUN is recorded as 7.2 ± 0.7 mmol/L. In series [2] (Day 56, 30 kBq), the Brain mass is given as 408 ± 16 mg, the Kidney mass was found to be 252 ± 24 mg, the Kidney-to-brain mass ratio is 0.62 ± 0.05 and the Liver mass is reported as 1096 ± 79 mg. Also, in series [2] (Day 56, 30 kBq), the Liver-to-brain mass ratio stood at 2.7 ± 0.2, the “RBM (relative body mass)” value came to 1.11 ± 0.02, the Spleen mass amounted to 127 ± 23 mg and the Spleen-to-brain mass ratio was 0.31 ± 0.07. For the same molecule, in series [2] (Day 56, 30 kBq), the TBIL came out at 4.3 ± 0.5 µmol/L. Further, the Kidney-to-brain mass ratio in series [2] (cured mice, Day 56, range over groups) was 0.62–0.68. Moreover, the “Tolerability of therapy (body mass increasing over time)” value in series [2] (effectively treated PC-3 PIP tumor-bearing mice) is recorded as “well tolerated”.
